# According to patent US20030166721A1, “Choline derivative for the treatment of alzheimer's disease” (priority 2000, published 2003):
# Target: T1, Choline Specific Transport System (HUCT) (Rattus norvegicus, UniProt Q9JMD7)
# T1 construct: from tissue; host or cells: brain of living Wistar rats (in vivo, ICV microinfusion, EEG read-out)
# T1 sequence (Q9JMD7 1-580): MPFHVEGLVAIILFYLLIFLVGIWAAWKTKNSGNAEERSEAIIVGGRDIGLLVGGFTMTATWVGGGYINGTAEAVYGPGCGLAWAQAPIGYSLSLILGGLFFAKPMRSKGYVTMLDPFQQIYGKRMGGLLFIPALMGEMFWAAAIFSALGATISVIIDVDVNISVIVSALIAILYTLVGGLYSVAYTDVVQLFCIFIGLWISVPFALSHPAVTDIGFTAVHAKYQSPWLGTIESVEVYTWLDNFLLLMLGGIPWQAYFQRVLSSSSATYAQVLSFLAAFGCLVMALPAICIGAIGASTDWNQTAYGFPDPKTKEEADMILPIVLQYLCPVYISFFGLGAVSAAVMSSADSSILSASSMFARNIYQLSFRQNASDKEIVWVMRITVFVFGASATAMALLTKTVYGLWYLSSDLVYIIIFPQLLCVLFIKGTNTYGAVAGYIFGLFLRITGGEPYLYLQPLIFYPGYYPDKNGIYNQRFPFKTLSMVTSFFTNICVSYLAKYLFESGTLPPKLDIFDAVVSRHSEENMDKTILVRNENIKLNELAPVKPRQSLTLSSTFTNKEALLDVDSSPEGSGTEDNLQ
# Experiment: EEG after ICV Hemicholinium-3 (choline uptake blocker) pretreatment
# Format: in vivo
# Details: rats, i.p. at the active dose after Hch3 pretreatment
# Description: FIG. 4B—Effect on EEG spectrum power after treatment with PC-1 (5 mg i.p.) administered 15 min after microinfusion of Hch3 (0.1 ng/0.5 μl) in the III ventricule. As in FIG. 4a, time (min) is reported in abscissa, the EEG spectrum power expressed as μV^2/s is reported in ordinate. Graphics report the EEG spectrum total power (0.25-16 Hz).
smiles,measurement,value
"CC(C)(C)C(=O)OCC[N+](C)(C)C.[I-] [PC-1, pivaloylcholine iodide]",Alert response and EEG desynchronization after Hch3 pretreatment,induced neither alert response not EEG desynchronization
